What was measured:
[1] = In vitro dissolution and aqueous solubility study in distilled water
Protocol: The dissolution experiment was carried out in triplicate on both the diethyl tetrathiomolybdate salt and the ammonium tetrathiomolybdate salt.

[2] = H2S gas detection assay (H2S gas release in PBS); assay type: physicochemical; settings: for quantity of H2S gas released under standard conditions: PBS, pH 7.4, 37° C., incubation 1 hour, FIG. 12A
Excerpt: A, B and C denote the synthetic route of manufacture of DEA-TTM, with respect to FIG. 6.
If the sample is drawn in the latter part of the 10-second bin, the second or third reading may be the highest. A direct correlation ([…], straight line model, r^2=0.992; see FIG. 11) was observed on comparing the peak H2S value against the sum of the washout readings (decay) over time (area under curve, AUC). As the time to washout and the sum of values therein are directly proportional to the peak quantity of gas initially detected, it is appropriate to consider only the peak H2S gas level to determine the total amount of H2S gas release.
Initial testing of DEA-TTM salts A, B and C was carried out under standard conditions (dissolution in PBS, pH 7.4, incubation for 1 hour). […] Acidic conditions are shown to favour sulfide release.

[3] = Protocol: The in vitro dissolution and aqueous solubility behaviour at 25° C. was also investigated for the DEA-TTM salts synthesised by routes A, B and C as outlined in Example 1.5 above (Almac Sciences, Northern Ireland).

SMILES	solubility in distilled water [1]	dissolution time ([1]; distilled water)	thiol dependence of H2S release (increase, in words) ([2]; for reference)	solubility in water at 25° C. [3] [µg/mL]	quantity of H2S gas released under standard conditions ([2]; listed as salt B)	quantity of H2S gas released under standard conditions ([2]; listed as salt C)
[NH4+].[NH4+].[SH-].[SH-].[S]=[Mo]=[S] [ATTM, ammonium tetrathiomolybdate]	ca. 2 mg/ml	over 1 hour	six-fold increase	2000	–	–
CC[NH2+]CC.CC[NH2+]CC.[S]=[Mo](=[S])([S-])[S-] [diethylamine tetrathiomolybdate]	–	–	–	–	released the least H2S gas	released the most H2S gas
